Here are results for 14 compounds from patent US11331369B2, “Endoparasitic depsipeptides” (Zoetis Services LLC, priority 2017, dated 2022).

The subject of this test is microfilariae of Dirofilaria immitis. The test can be described thus: Dirofilaria immitis, Microfilaria (DiMF) In vitro Assay. The format is cell-based. Particulars: 72 h, read-out: DiMF Minimum Effective Dose (MED), approximately 72 hours incubation, microfilariae assessed for survival or paralysis.
For `Cc1nn(Cc2ccc(C[C@H]3OC(=O)[C@H](CC(C)C)N(C)C(=O)[C@@H](C)OC(=O)[C@H](CC(C)C)N(C)C(=O)[C@@H](Cc4ccccc4)OC(=O)[C@H](CC(C)C)N(C)C(=O)[C@@H](C)OC(=O)[C@H](CC(C)C)N(C)C3=O)cc2)c(C)c1C#N` [Example 2-78, 1-(4-(((2R,5S,8R,11S,14R,17S,20R,23S)-14-benzyl-5,11,17,23-tetraisobutyl-4,8,10,16,20,22-hexamethyl-3,6,9,12,15,18,21,24-octaoxo-1,7,13,19-tetraoxa-4,10,16,22-tetraazacyclotetracosan-2-yl)methyl)benzyl)-3,5-dimethyl-1H-pyrazole-4-carbonitrile], the minimal effective concentration fell in the range of 0.01 to 0.1 µM.
In the case of `CC(C)C[C@H]1C(=O)O[C@H](Cc2ccc(Cn3cc(C4CCOCC4)cn3)cc2)C(=O)N(C)[C@@H](CC(C)C)C(=O)O[C@H](C)C(=O)N(C)[C@@H](CC(C)C)C(=O)O[C@H](Cc2ccc(Cn3cc(C4CCOCC4)cn3)cc2)C(=O)N(C)[C@@H](CC(C)C)C(=O)O[C@H](C)C(=O)N1C` [Example 1b-116, (3S,6R,9S,12R,15S,18R,21S,24R)-3,9,15,21-tetraisobutyl-4,6,10,16,18,22-hexamethyl-12,24-bis(4-((4-(tetrahydro-2H-pyran-4-yl)-1H-pyrazol-1-yl)methyl)benzyl)-1,7,13,19-tetraoxa-4,10,16,22-tetraazacyclotetracosan-2,5,8,11,14,17,20,23-octaone], the minimal effective concentration is 0.01 to 0.1 µM.
On to `CC(=O)c1cnn(Cc2ccc(C[C@H]3OC(=O)[C@H](CC(C)C)N(C)C(=O)[C@@H](C)OC(=O)[C@H](CC(C)C)N(C)C(=O)[C@@H](Cc4ccc(Cn5cc(C(C)=O)cn5)cc4)OC(=O)[C@H](CC(C)C)N(C)C(=O)[C@@H](C)OC(=O)[C@H](CC(C)C)N(C)C3=O)cc2)c1` [Example 1b-38, (3S,6R,9S,12R,15S,18R,21S,24R)-6,18-bis(4-((4-acetyl-1H-pyrazol-1-yl)methyl)benzyl)-3,9,15,21-tetraisobutyl-4,10,12,16,22,24-hexamethyl-1,7,13,19-tetraoxa-4,10,16,22-tetraazacyclotetracosan-2,5,8,11,14,17,20,23-octaone], for which the minimal effective concentration fell in the range of 0.01 to 0.1 µM.
`CC(C)C[C@H]1C(=O)O[C@H](Cc2ccc(Cn3cc(CO)nn3)cc2)C(=O)N(C)[C@@H](CC(C)C)C(=O)O[C@H](C)C(=O)N(C)[C@@H](CC(C)C)C(=O)O[C@H](Cc2ccccc2)C(=O)N(C)[C@@H](CC(C)C)C(=O)O[C@H](C)C(=O)N1C` [Example 10-19, (3S,6R,9S,12R,15S,18R,21S,24R)-6-benzyl-18-(4-((4-(hydroxymethyl)-1H-1,2,3-triazol-1-yl)methyl)benzyl)-3,9,15,21-tetraisobutyl-4,10,12,16,22,24-hexamethyl-1,7,13,19-tetraoxa-4,10,16,22-tetraazacyclotetracosan-2,5,8,11,14,17,20,23-octaone]: the minimal effective concentration is 0.01 to 0.1 µM.
On to `CCOc1cc(CC)nn1Cc1ccc(C[C@H]2OC(=O)[C@H](CC(C)C)N(C)C(=O)[C@@H](C)OC(=O)[C@H](CC(C)C)N(C)C(=O)[C@@H](Cc3ccc(Cn4nc(CC)cc4OCC)cc3)OC(=O)[C@H](CC(C)C)N(C)C(=O)[C@@H](C)OC(=O)[C@H](CC(C)C)N(C)C2=O)cc1` [Example 1b-169, (3S,6R,9S,12R,15S,18R,21S,24R)-6,18-bis(4-((5-ethoxy-3-ethyl-1H-pyrazol-1-yl)methyl)benzyl)-3,9,15,21-tetraisobutyl-4,10,12,16,22,24-hexamethyl-1,7,13,19-tetraoxa-4,10,16,22-tetraazacyclotetracosan-2,5,8,11,14,17,20,23-octaone], for which the minimal effective concentration fell in the range of 0.01 to 0.1 µM.
Take `CC(C)C[C@H]1C(=O)O[C@H](Cc2cccc(Cn3ccnc3C3CC3)c2)C(=O)N(C)[C@@H](CC(C)C)C(=O)O[C@H](C)C(=O)N(C)[C@@H](CC(C)C)C(=O)O[C@H](Cc2ccc(Cn3ccnc3C3CC3)cc2)C(=O)N(C)[C@@H](CC(C)C)C(=O)O[C@H](C)C(=O)N1C` [Example 7-7, (3S,6R,9S,12R,15S,18R,21S,24R)-6-[[3-[(2-cyclopropylimidazol-1-yl)methyl]phenyl]methyl]-18-[[4-[(2-cyclopropylimidazol-1-yl)methyl]phenyl]methyl]-3,9,15,21-tetraisobutyl-4,10,12,16,22,24-hexamethyl-1,7,13,19-tetraoxa-4,10,16,22-tetrazacyclotetracosane-2,5,8,11,14,17,20,23-octaone]: the minimal effective concentration lay in the range of 0.01 to 0.1 µM.
For the compound `CCc1nn(Cc2ccc(C[C@H]3OC(=O)[C@H](CC(C)C)N(C)C(=O)[C@@H](C)OC(=O)[C@H](CC(C)C)N(C)C(=O)[C@@H](Cc4ccccc4)OC(=O)[C@H](CC(C)C)N(C)C(=O)[C@@H](C)OC(=O)[C@H](CC(C)C)N(C)C3=O)cc2)c(CC)c1N` [Example 2-86, (3S,6R,9S,12R,15S,18R,21S,24R)-6-(4-((4-amino-3,5-diethyl-1H-pyrazol-1-yl)methyl)benzyl)-18-benzyl-3,9,15,21-tetraisobutyl-4,10,12,16,22,24-hexamethyl-1,7,13,19-tetraoxa-4,10,16,22-tetraazacyclotetracosan-2,5,8,11,14,17,20,23-octaone], the minimal effective concentration lay in the range of 0.01 to 0.1 µM.
For `Cc1nn(Cc2ccc(C[C@H]3OC(=O)[C@H](CC(C)C)N(C)C(=O)[C@@H](C)OC(=O)[C@H](CC(C)C)N(C)C(=O)[C@@H](Cc4ccccc4)OC(=O)[C@H](CC(C)C)N(C)C(=O)[C@@H](C)OC(=O)[C@H](CC(C)C)N(C)C3=O)cc2)c(C)c1C` [Example 2-11, (3S,6R,9S,12R,15S,18R,21S,24R)-6-benzyl-3,9,15,21-tetraisobutyl-4,10,12,16,22,24-hexamethyl-18-(4-((3,4,5-trimethyl-1H-pyrazol-1-yl)methyl)benzyl)-1,7,13,19-tetraoxa-4,10,16,22-tetraazacyclotetracosan-2,5,8,11,14,17,20,23-octaone], the minimal effective concentration lay in the range of 0.01 to 0.1 µM.
As for `CC(C)C[C@H]1C(=O)O[C@H](Cc2ccc(Cn3cc(C#CC(C)(C)C)cn3)cc2)C(=O)N(C)[C@@H](CC(C)C)C(=O)O[C@H](C)C(=O)N(C)[C@@H](CC(C)C)C(=O)O[C@H](Cc2ccccc2)C(=O)N(C)[C@@H](CC(C)C)C(=O)O[C@H](C)C(=O)N1C` [Example 2-71, (3S,6R,9S,12R,15S,18R,21S,24R)-6-benzyl-18-(4-((4-(3,3-dimethylbut-1-yn-1-yl)-1H-pyrazol-1-yl)methyl)benzyl)-3,9,15,21-tetraisobutyl-4,10,12,16,22,24-hexamethyl-1,7,13,19-tetraoxa-4,10,16,22-tetraazacyclotetracosan-2,5,8,11,14,17,20,23-octaone], the minimal effective concentration was 0.01 to 0.1 µM.
As for `CC(C)C[C@H]1C(=O)O[C@H](Cc2ccc(Cn3ccc(-c4cnccn4)n3)cc2)C(=O)N(C)[C@@H](CC(C)C)C(=O)O[C@H](C)C(=O)N(C)[C@@H](CC(C)C)C(=O)O[C@H](Cc2ccc(Cn3ccc(-c4cnccn4)n3)cc2)C(=O)N(C)[C@@H](CC(C)C)C(=O)O[C@H](C)C(=O)N1C` [Example 1b-195, (3S,6R,9S,12R,15S,18R,21S,24R)-3,9,15,21-tetraisobutyl-4,6,10,16,18,22-hexamethyl-12,24-bis[[4-[(3-pyrazin-2-ylpyrazol-1-yl)methyl]phenyl]methyl]-1,7,13,19-tetraoxa-4,10,16,22-tetrazacyclotetracosane-2,5,8,11,14,17,20,23-octaone], the minimal effective concentration was 0.01 to 0.1 µM.
As to `CC(C)C[C@H]1C(=O)O[C@H](Cc2cccc(Cn3nc(CO)cc3CO)c2)C(=O)N(C)[C@@H](CC(C)C)C(=O)O[C@H](C)C(=O)N(C)[C@@H](CC(C)C)C(=O)O[C@H](Cc2ccccc2)C(=O)N(C)[C@@H](CC(C)C)C(=O)O[C@H](C)C(=O)N1C` [Example 5-4, (3S,6R,9S,12R,15S,18R,21S,24R)-6-benzyl-18-(3-((3,5-bis(hydroxymethyl)-1H-pyrazol-1-yl)methyl)benzyl)-3,9,15,21-tetraisobutyl-4,10,12,16,22,24-hexamethyl-1,7,13,19-tetraoxa-4,10,16,22-tetraazacyclotetracosan-2,5,8,11,14,17,20,23-octaone], the minimal effective concentration was 0.01 to 0.1 µM.
For the compound `CC(C)C[C@H]1C(=O)O[C@H](Cc2ccc(Cn3nc(CO)cc3C3CC3)cc2)C(=O)N(C)[C@@H](CC(C)C)C(=O)O[C@H](C)C(=O)N(C)[C@@H](CC(C)C)C(=O)O[C@H](Cc2ccc(Cn3nc(CO)cc3C3CC3)cc2)C(=O)N(C)[C@@H](CC(C)C)C(=O)O[C@H](C)C(=O)N1C` [Example 1b-8, (3S,6R,9S,12R,15S,18R,21S,24R)-6,18-bis(4-((5-cyclopropyl-3-(hydroxymethyl)-1H-pyrazol-1-yl)methyl)benzyl)-3,9,15,21-tetraisobutyl-4,10,12,16,22,24-hexamethyl-1,7,13,19-tetraoxa-4,10,16,22-tetraazacyclotetracosan-2,5,8,11,14,17,20,23-octaone], the minimal effective concentration is 0.001 to 0.01 µM.
On to `CC(=O)c1cnn(Cc2ccc(C[C@H]3OC(=O)[C@H](CC(C)C)N(C)C(=O)[C@@H](C)OC(=O)[C@H](CC(C)C)N(C)C(=O)[C@@H](Cc4ccccc4)OC(=O)[C@H](CC(C)C)N(C)C(=O)[C@@H](C)OC(=O)[C@H](CC(C)C)N(C)C3=O)cc2)c1` [Example 2-13, (3S,6R,9S,12R,15S,18R,21S,24R)-6-(4-((4-acetyl-1H-pyrazol-1-yl)methyl)benzyl)-18-benzyl-3,9,15,21-tetraisobutyl-4,10,12,16,22,24-hexamethyl-1,7,13,19-tetraoxa-4,10,16,22-tetraazacyclotetracosan-2,5,8,11,14,17,20,23-octaone], for which the minimal effective concentration fell in the range of 0.01 to 0.1 µM.
`COc1cnn(Cc2cccc(C[C@H]3OC(=O)[C@H](CC(C)C)N(C)C(=O)[C@@H](C)OC(=O)[C@H](CC(C)C)N(C)C(=O)[C@@H](Cc4cccc(Cn5cc(OC)cn5)c4)OC(=O)[C@H](CC(C)C)N(C)C(=O)[C@@H](C)OC(=O)[C@H](CC(C)C)N(C)C3=O)c2)c1` [Example 4-9, (3S,6R,9S,12R,15S,18R,21S,24R)-3,9,15,21-tetraisobutyl-6,18-bis(3-((4-methoxy-1H-pyrazol-1-yl)methyl)benzyl)-4,10,12,16,22,24-hexamethyl-1,7,13,19-tetraoxa-4,10,16,22-tetraazacyclotetracosan-2,5,8,11,14,17,20,23-octaone]: the minimal effective concentration lay in the range of 0.01 to 0.1 µM.
